The record followed here is US20220204489A1, “ARYLSULFONYLTHIOPHENECARBOXAMIDES AND ARYLSULFONYLFURANCARBOXAMIDES AS Kv3 POTASSIUM CHANNEL ACTIVATORS” (H. Lundbeck A/S, priority 2019, published 2022).

The experiment addresses T1, hKv3.1b (Homo sapiens, UniProt P48547).
T1 construct: expressed in transfected cells
T1 sequence (P48547 1-585 isoform P48547-2): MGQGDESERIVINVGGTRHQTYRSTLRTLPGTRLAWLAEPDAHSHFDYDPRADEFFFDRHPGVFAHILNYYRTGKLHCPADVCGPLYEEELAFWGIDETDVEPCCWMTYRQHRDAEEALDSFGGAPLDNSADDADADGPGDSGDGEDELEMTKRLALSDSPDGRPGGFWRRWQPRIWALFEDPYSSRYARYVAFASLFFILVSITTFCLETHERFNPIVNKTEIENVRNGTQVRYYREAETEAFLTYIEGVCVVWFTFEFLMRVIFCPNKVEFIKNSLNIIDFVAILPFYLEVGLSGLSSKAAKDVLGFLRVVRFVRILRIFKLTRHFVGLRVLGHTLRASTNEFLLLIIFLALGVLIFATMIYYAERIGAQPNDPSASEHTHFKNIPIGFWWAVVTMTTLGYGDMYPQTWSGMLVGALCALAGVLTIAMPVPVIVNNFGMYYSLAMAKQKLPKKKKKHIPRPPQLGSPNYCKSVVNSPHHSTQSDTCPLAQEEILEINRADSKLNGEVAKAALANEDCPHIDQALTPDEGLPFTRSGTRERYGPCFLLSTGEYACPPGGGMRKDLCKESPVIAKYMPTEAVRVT
Put plainly: QPatch automated whole-cell patch-clamp, shift of voltage threshold for channel activation. As to conditions: HEK-293 cells stably expressing hKv3.1b; for ECdelta5mV: concentration needed to shift the threshold 5 mV, read from fitted concentration response curve; for Max threshold shift: maximum absolute shift of activation threshold to more hyperpolarized potentials at tested concentrations (0.37, 1.11, 3.33, 10, 30 μM). The experiment is classed as cell-based. On the procedure: HEK-293 cells stably expressing hKv3.1b was used for the experiments. Cells were cultured in DMEM medium supplemented with 10% Fetal Bovine Serum, 100 ug/mL Geneticidin and 100 u/mL Penicillin/Streptomycin (all from Gibco). Cells were grown to 80-90% confluency at 37° C. and 5% CO2. On the day of the experiment the cells were detached from the tissue culture flasks by Detachin and resuspended in serum free medium containing 25 mM HEPES and transferred to the cell hotel of the QPatch. The cells were used for experiments 0-5 hours after detachment.
Patch-clamp recordings were performed using the automated recording system QPatch-16× (Sophion Bioscience, Denmark). Cells were centrifuged, SFM removed and the cells were resuspended in extracellular buffer containing (in mM): 145 NaCl, 4 KCl, 1 MgCl2, 2 CaCl2, 10 HEPES and 10 glucose (added fresh on the day of experiment); pH 7.4 adjusted with NaOH, 305 mOsm adjusted with sucrose.
Single cell whole-cell recordings were carried out using an intracellular solution containing (in mM): 120 KCl, 32.25/10 KOH/EGTA, 5.374 CaCl2, 1.75 MgCl2, 10 HEPES, 4 Na2ATP (added fresh on the day), pH 7.2 adjusted with KOH, 395 mOsm adjusted with sucrose. Cell membrane potentials were held at −80 mV and currents were evoked by voltage steps (200 ms duration) from −70 mV to +10 mV (in 10 mV increments). Vehicle (0.33% DMSO) or increasing concentration of compound (1) were applied and the voltage protocol was run 3 times (resulting in 3 min cpd incubation time). Five increasing concentrations of compound (1) were applied to each cell.
Leak subtraction protocol was applied at −33% of the sweep amplitude, and serial resistance values were constantly monitored.
Any cell where serial resistance exceeded 25 MOhm, membrane resistance less than 200 MOhm or current size at −10 mV less than 200 pA was eliminated from the subsequent analysis.
Data analysis was performed using Sophion's QPatch assay software in combination with Microsoft Excel™ (Redmond, Wash., USA).
Current voltage relationships were plotted from the peak current at the individual voltage steps normalized to the vehicle addition at 10 mV. The voltage threshold for channel activation was defined as 5% activation of the peak current at 10 mV in presence of vehicle. The activity of the compounds was described as the ability to shift this current voltage relationship to more hyperpolarized potentials and is given as the maximum absolute shift possible at the tested concentrations (0.37, 1.11, 3.33, 10, 30 μM). Concentration response curves were plotted from the threshold shift at the individual concentrations and were fitted excel fit model 205 sigmodal dose-response model (fit=A+((B−A)/1+((C/x)^D)))), where A is the minimum value, B the maximum value, C the EC50 value and D the slope of the curve. The concentration needed to shift the threshold 5 mV was readout from this curve (ECdelta5 mV).

For the compound `Cc1cnc(CNC(=O)c2ccc(S(=O)(=O)c3ccc(F)cc3)s2)cn1` [Compound 3, 5-(4-fluorobenzene-1-sulfonyl)-N-[(5-methylpyrazin-2-yl)methyl]thiophene-2-carboxamide], the ECdelta5mV worked out at 2200 nM and the Max threshold shift is on record as 19 mV.
In the same order, the values of `Cc1ccc(S(=O)(=O)c2ccc(C(=O)NCc3ccc(C)nn3)s2)cc1` [Compound 14, 5-(4-methylbenzene-1-sulfonyl)-N-[(6-methylpyridazin-3-yl)methyl]thiophene-2-carboxamide] are 2000 nM and 22 mV.
For `Cc1ccc(S(=O)(=O)c2ccc(C(=O)NCc3nc(C)no3)s2)cc1` [Compound 11, 5-(4-methylbenzene-1-sulfonyl)-N-[(3-methyl-1,2,4-oxadiazol-5-yl)methyl]thiophene-2-carboxamide] the same measures were 2500 nM and 17 mV.
Consider `Cc1ccc(S(=O)(=O)c2ccc(C(=O)NCc3cc(F)ccn3)o2)cc1` [Compound 25, N-[(4-fluoropyridin-2-yl)methyl]-5-(4-methylbenzene-1-sulfonyl)furan-2-carboxamide], for which the ECdelta5mV amounted to 4100 nM and the Max threshold shift worked out at 15 mV.
For `Cc1ccc(S(=O)(=O)c2ccc(C(=O)NCc3cnc(C)nc3)s2)cc1` [Compound 17, 5-(4-methylbenzene-1-sulfonyl)-N-[(2-methylpyrimidin-5-yl)methyl]thiophene-2-carboxamide] the same measures were 1700 nM and 24 mV.
For `Cc1cnc(CNC(=O)c2ccc(S(=O)(=O)c3ccccc3)s2)cn1` [Compound 18, 5-(benzenesulfonyl)-N-[(5-methylpyrazin-2-yl)methyl]thiophene-2-carboxamide] the same measures were 2400 nM and 17 mV.
In the same order, the values of `COc1ccc(S(=O)(=O)c2ccc(C(=O)NCc3cnccn3)o2)cc1` [Compound 24, 5-(4-methoxybenzene-1-sulfonyl)-N-[(pyrazin-2-yl)methyl]furan-2-carboxamide] are 2700 nM and 20 mV.
Consider `Cc1ccc(S(=O)(=O)c2ccc(C(=O)NCc3ccn(C)n3)o2)cc1` [Compound 23, 5-(4-methylbenzene-1-sulfonyl)-N-[(1-methyl-1H-pyrazol-3-yl)methyl]furan-2-carboxamide], for which the ECdelta5mV worked out at 2400 nM and the Max threshold shift is 17 mV.
Consider `COc1ccc(S(=O)(=O)c2ccc(C(=O)NCc3cnc(C)cn3)s2)cc1` [Compound 16, 5-(4-methoxybenzene-1-sulfonyl)-N-[(5-methylpyrazin-2-yl)methyl]thiophene-2-carboxamide], for which the ECdelta5mV is recorded as 1500 nM and the Max threshold shift was determined as 24 mV.
For `Cc1cnc(CNC(=O)c2ccc(S(=O)(=O)c3ccccc3C)s2)cn1` [Compound 4, 5-(2-methylbenzene-1-sulfonyl)-N-[(5-methylpyrazin-2-yl)methyl]thiophene-2-carboxamide] the same measures were 1200 nM and 30 mV.
Consider `Cc1cnc(CNC(=O)c2ccc(S(=O)(=O)c3ccc(Cl)cc3)s2)cn1` [Compound 2, 5-(4-chlorobenzene-1-sulfonyl)-N-[(5-methylpyrazin-2-yl)methyl]thiophene-2-carboxamide], for which the ECdelta5mV was 1200 nM and the Max threshold shift is 36 mV.
With `Cc1ccc(S(=O)(=O)c2ccc(C(=O)NCc3cnc(C)cn3)o2)cc1` [Compound 22, 5-(4-methylbenzene-1-sulfonyl)-N-[(5-methylpyrazin-2-yl)methyl]furan-2-carboxamide], the ECdelta5mV was 2100 nM and the Max threshold shift is 27 mV.
As for `Cc1ccc(S(=O)(=O)c2ccc(C(=O)NCc3cnn(C)c3)s2)cc1` [Compound 9, 5-(4-methylbenzene-1-sulfonyl)-N-[(1-methyl-1H-pyrazol-4-yl)methyl]thiophene-2-carboxamide], the ECdelta5mV was found to be 2600 nM and the Max threshold shift came out at 17 mV.
Consider `Cc1ccc(S(=O)(=O)c2ccc(C(=O)NCc3ccn(C)n3)s2)cc1` [Compound 7, 5-(4-methylbenzene-1-sulfonyl)-N-[(1-methyl-1H-pyrazol-3-yl)methyl]thiophene-2-carboxamide], for which the ECdelta5mV worked out at 2500 nM and the Max threshold shift is listed as 17 mV.
For `Cc1cnc(CNC(=O)c2ccc(S(=O)(=O)c3ccc(F)cc3C)s2)cn1` [Compound 20, 5-(4-fluoro-2-methylbenzene-1-sulfonyl)-N-[(5-methylpyrazin-2-yl)methyl]thiophene-2-carboxamide] the same measures were 1900 nM and 29 mV.
On to `Cc1ccc(S(=O)(=O)c2ccc(C(=O)NCc3cc(C)no3)s2)cc1` [Compound 13, 5-(4-methylbenzene-1-sulfonyl)-N-[(3-methyl-1,2-oxazol-5-yl)methyl]thiophene-2-carboxamide], for which the ECdelta5mV stood at 2600 nM and the Max threshold shift was found to be 14 mV.
Take `Cc1ccc(S(=O)(=O)c2ccc(C(=O)NCc3ncn(C)n3)s2)cc1` [Compound 15, 5-(4-methylbenzene-1-sulfonyl)-N-[(1-methyl-1H-1,2,4-triazol-3-yl)methyl]thiophene-2-carboxamide]: the ECdelta5mV was determined as 3100 nM and the Max threshold shift is on record as 20 mV.
In the same order, the values of `Cc1ccc(S(=O)(=O)c2ccc(C(=O)NCc3cccnc3)s2)cc1` [Compound 8, 5-(4-methylbenzene-1-sulfonyl)-N-[(pyridin-3-yl)methyl]thiophene-2-carboxamide] are 2900 nM and 16 mV.
For `Cc1ccc(S(=O)(=O)c2ccc(C(=O)NCc3cnc(C)cn3)s2)cc1` [Compound 1, 5-(4-methylbenzene-1-sulfonyl)-N-[(5-methylpyrazin-2-yl)methyl]thiophene-2-carboxamide] the same measures were 1200 nM and 24 mV.
For the compound `Cc1ccc(S(=O)(=O)c2ccc(C(=O)NCc3cnccn3)s2)cc1` [Compound 10, 5-(4-methylbenzene-1-sulfonyl)-N-[(pyrazin-2-yl)methyl]thiophene-2-carboxamide], the ECdelta5mV was found to be 1200 nM and the Max threshold shift is 25 mV.
As for `Cc1ccc(S(=O)(=O)c2ccc(C(=O)NCc3ncc(C)cn3)s2)cc1` [Compound 6, 5-(4-methylbenzene-1-sulfonyl)-N-[(5-methylpyrimidin-2-yl)methyl]thiophene-2-carboxamide], the ECdelta5mV was found to be 3100 nM and the Max threshold shift stood at 12 mV.
Turning to `Cc1ccc(S(=O)(=O)c2ccc(C(=O)NCc3ccc(C)nc3)s2)cc1` [Compound 5, 5-(4-methylbenzene-1-sulfonyl)-N-[(6-methylpyridin-3-yl)methyl]thiophene-2-carboxamide], the ECdelta5mV is listed as 2100 nM and the Max threshold shift came out at 21 mV.
In the same order, the values of `Cc1cnc(CNC(=O)c2ccc(S(=O)(=O)c3ccc(C(F)F)cc3)s2)cn1` [Compound 21, 5-[4-(difluoromethyl)benzene-1-sulfonyl]-N-[(5-methylpyrazin-2-yl)methyl]thiophene-2-carboxamide] are 1700 nM and 32 mV.
